# Data as given in article PMC9331544, “Molecular Physicochemical Properties of Selected Pesticides as Predictive Factors for Oxidative Stress and Apoptosis-Dependent Cell Death in Caco-2 and HepG2 Cells” (International Journal of Molecular Sciences, 2022).
# Read-outs that look alike come from different tables or passages of the source.
# Experiments:
# [1] = tested on: Caco-2 cells; assay: Intracellular ROS content, DCFDA, flow cytometry; format: cell-based, human; conditions: 24 h
# Description: (§1) To assess pesticides-induced oxidative stress, the intracellular content in reactive oxygen species (ROS), content in glutathione (GSH), and lipid peroxidation was quantified by flow cytometry, following the methods described by Domínguez-Perles, et al. and Queiroz, et al.. Briefly, to assess ROS content, cells re-suspended in PBS (from Section 3.3.1) were centrifuged (5 min, 3000 rpm, bench micro-centrifuge) and, after eliminating the supernatant, 200 μL of 10 µM DCFDA solution (prepared in FBS-free DMEM) was added to each sample. After a 45 min incubation at 37 °C (in the dark, in an incubator), cells were centrifuged to remove excess of probe and re-suspended in PBS. Finally, 5 μL of propidium iodide (PI; 50 μg/mL) was added to each sample 3 min before flow cytometry acquisition.
# [2] = tested on: HepG2 cells; assay: Intracellular ROS content, DCFDA, flow cytometry; format: cell-based, human; conditions: HepG2, 75 μM, 24 h
# Description: as §1
# [3] = tested on: Caco-2 cells; conditions: for Caco-2 FL2/FL1 ratio: mean ± SD
# Description: (§2) Given the role of mitochondria in both oxidative stress and cell death (apoptosis), we evaluated the mitochondrial membrane potential (MMP) using the JC-1 probe (see methods for details). This probe accumulates in the mitochondria in the form of J-aggregates when in normal mitochondrial conditions (polarized) and presents red fluorescence. By contrast, in unhealthy cells, when depolarization occurs, JC-1 enters the mitochondria in lower concentrations forming monomers inducing a fluorescence shift to green fluorescence, thus the loss of MMP is observed through flow cytometry as a reduction in red (FL2) and an increase in green (FL1) fluorescence, or as a reduction in red/green (FL2/FL1) fluorescence ratio [45, 46].
# (§3) Pesticide-induced oxidative stress and apoptosis/necrosis events were analysed by flow cytometry. For this, one colour and two-colour flow cytometry assays were performed, using a BD Accuri™ C6 cytometer (Franklin Lakes, NJ, USA) equipment for data acquisition. Each assay was performed at least in triplicate (n = 3) and 5000 gated events were collected from each sample. Data analysis was performed using BD Accuri™ C6 Software, version 1.0.264.21 supplied by Becton Dickinson (Franklin Lakes, NJ, USA).
# (§4) Caco-2 and HepG2 cells (handled as described in Section 3.2.1) were seeded in 12-well microplates (at 5 × 10^4 cells/mL density; 750 µL/well), and allowed to adhere and stabilize for 48 h in the incubator. […] Negative control cells (non-exposed cells) were included in each assay. After a 24 h incubation with test solutions, cells were washed with phosphate buffer saline (PBS) solution and then detached from the microplates (as in Section 3.2.1) and placed in centrifuge tubes and centrifuged (5 min, 3000 rpm, bench micro-centrifuge). After eliminating the supernatant, cells were washed in PBS solution through another centrifuge cycle. Then cells were divided before being incubated with the specific markers to assess oxidative stress markers and cell apoptosis/necrosis.
# (§5) Mitochondrial membrane potential was analysed using JC-1 probe following the procedures as described by the manufacturer. Caco-2 and HepG2 cells suspended in PBS were centrifuged (5 min, 3000 rpm, bench micro-centrifuge), the supernatant was removed and 200 μL of JC-1 solution (2 μM; diluted in FBS-free culture media) was added to each sample. The samples were incubated for 20 min at 37 °C (in a CO2 incubator) and then analysed by flow cytometry. Negative control, non-exposed, and positive control cells exposed to the protonophore FCCP (5 μM; carbonyl cyanide p-trifluoromethoxyphenylhydrazone) were performed in each set of experiments.
# [4] = tested on: HepG2 cells; conditions: 24 h; for HepG2 FL2/FL1 ratio: mean ± SD
# Description: as §2, §3, §4, §5
# [5] = tested on: Caco-2 cells; assay: Literature: Caco-2 cell viability; format: cell-based, human; conditions: Caco-2, 24 h, ref [34] value vs Table 1
# [6] = tested on: Caco-2 cells; parameters: method as in doi:10.1016/j.envpol.2020.114660; conditions: Caco-2, 30 µg/mL (~100 µM), fluorescence microscopy; ref [34]; cited from earlier work
compound,measurement,setting,value
"C=CCOC(Cn1ccnc1)c1ccc(Cl)cc1Cl (stereo not shown) [Imazalil, imazalil]",increase in ROS content compared with control,"[1]; Caco-2, 75 μM",2.40 fold
same,increase in ROS content compared with control,"[1]; Caco-2, 250 μM",6.5 fold
same,increase in ROS content compared with control,[2],4.56 fold
same,FL2/FL1 ratio reduction (% of control),"[3]; Caco-2, 50 μM, 24 h",30.83±9.05 % of control
same,Caco-2 FL2/FL1 ratio,"[3]; Caco-2, 50 μM, 24 h",0.55±0.02
same,"FL2/FL1 ratio reduced, relative to negative control","[3]; Caco-2, 75 μM, 24 h",1.54 times
same,FL2/FL1 ratio reduction (% of control),"[3]; Caco-2, 75 μM, 24 h",34.30±6.61 % of control
same,Caco-2 FL2/FL1 ratio,"[3]; Caco-2, 75 μM, 24 h",0.52±0.03
same,FL2/FL1 ratio reduction (% of control),"[3]; Caco-2, 75 μM, 24 h, listed as IMZ",~ 34 % of control
same,FL2/FL1 ratio reduction (% of control),"[3]; Caco-2, 250 μM, 24 h",96.08±0.47 % of control
same,Caco-2 FL2/FL1 ratio,"[3]; Caco-2, 250 μM, 24 h",0.03±0.01
same,change in mitochondrial membrane potential (in words),"[3]; Caco-2, 24 h, tested concentrations, listed as IMZ",induced high changes in Caco-2 MMP
same,FL2/FL1 ratio reduction (% of control),"[4]; HepG2, 25 μM",56.22±16.07 % of control
same,HepG2 FL2/FL1 ratio,"[4]; HepG2, 25 μM",0.10±0.03
same,FL2/FL1 ratio reduction (% of control),"[4]; HepG2, 50 μM",57.15±8.10 % of control
same,HepG2 FL2/FL1 ratio,"[4]; HepG2, 50 μM",0.10±0.02
same,"FL2/FL1 ratio reduced, relative to negative control","[4]; HepG2, 75 μM",3.38 times
same,FL2/FL1 ratio reduction (% of control),"[4]; HepG2, 75 μM",72.95±0.28 % of control
same,HepG2 FL2/FL1 ratio,"[4]; HepG2, 75 μM",0.06±0.01
same,FL2/FL1 ratio reduction (% of control),"[4]; HepG2, 75 μM, listed as IMZ",~ 73 % of control
same,literature IC50 lower than the IC50 here reported,[5],2.53 fold
same,ROS content (in words),[6],increase in ROS content
